From patent publication US7977481B2, “Pyrimidinyl-thiophene kinase modulators” (SGX Pharmaceuticals, Inc., priority 2005, dated 2011)

What follows are compounds tested against T1, Autophosphorylated AurA kinase (Homo sapiens, UniProt O14965) (assay: AurA Luminescence-Based ATP Depletion Enzyme Assay). Conditions: 10 μM ATP.
T1 construct: made in house; host or cells: Sf9 insect cells
T1 sequence (O14965 1-403): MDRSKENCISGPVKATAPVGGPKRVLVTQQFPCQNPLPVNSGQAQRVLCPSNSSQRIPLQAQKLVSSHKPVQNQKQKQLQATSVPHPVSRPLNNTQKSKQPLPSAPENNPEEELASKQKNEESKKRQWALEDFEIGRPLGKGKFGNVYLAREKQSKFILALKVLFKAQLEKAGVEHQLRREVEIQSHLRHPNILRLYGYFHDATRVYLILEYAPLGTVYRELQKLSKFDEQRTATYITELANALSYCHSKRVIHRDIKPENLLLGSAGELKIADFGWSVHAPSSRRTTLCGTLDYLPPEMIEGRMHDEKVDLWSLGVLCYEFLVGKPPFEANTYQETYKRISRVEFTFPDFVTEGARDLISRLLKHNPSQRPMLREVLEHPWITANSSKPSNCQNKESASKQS
Type: biochemical
Description: AurA Luminescence-Based ATP Depletion Enzyme Assay
Materials: Kemptide peptide substrate=LRRASLG (Biopeptide, San Diego, Calif.), ATP (Sigma Cat#A-3377, FW=551), HEPES buffer, pH 7.5, 10% Brij 35 (Calbiochem Cat#203728), MgCl2, Staurosporine (Streptomyces sp. Sigma Cat#85660-1MG), white Costar 384-well flat-bottom plate (VWR Cat#29444-088), Autophosphorylated AurA kinase (see below), Kinase-Glo™ (Promega Cat#V6712).
Stock Solutions: 10 mM Kemptide peptide (7.72 mg/ml in water), stored at −20° C.; 100 mM HEPES buffer+0.015% Brij 35, pH 7.5 (5 ml 1M HEPES stock+75 μL 10% Brij 35+45 ml miliQH2O); 10 mM ATP (5.51 mg/ml in dH2O) stored at −20° C. (diluted 50 μl into total of 10 ml miliQH2O daily=50 μM ATP working stock); 100 mM MgCl2; 200 μM Staurosporine, 2× Kinase-Glo™ reagent (made fresh or stored at −20° C.).
AurA Autophosphorylation Reaction: ATP and MgCl2 were added to 1-5 mg/ml AurA at final concentrations of 10 mM and 100 mM, respectively. The autophosphorylation reaction was incubated at 21° C. for 2-3 h. The reaction was stopped by the addition of EDTA to a final concentration of 50 mM, and samples were flash frozen with liquid N2 and stored at −80° C.
Standard Assay Setup for 384-well format (20 μl kinase reaction, 40 μl detection reaction): 10 mM MgCl2; 0.2 mM Kemptide peptide; 1 μl test compound (in DMSO); 0.3 μg/ml Autophosphorylated AurA kinase; 10 μM ATP; 100 mM HEPES+0.015% Brij buffer. Positive controls contained DMSO with no test compound. Negative controls contained 5 μM staurosporine. The kinase reactions were initiated at time t=0 by the addition of ATP. Kinase reactions were incubated at 21° C. for 45 min, then 20 μl of Kinase-Glo™ reagent were added to each well to quench the kinase reaction and initiate the luminescence reaction. After a 20 min incubation at 21° C., the luminescence was detected in a plate-reading luminometer.
The Sf9 insect cell pellets (˜18 g) produced from 6 L of cultured cells expressing human Aurora-2 were resuspended in 50 mM Na Phosphate pH 8.0, 500 mM NaCl, 10% glycerol, 0.2% n-octyl-β-D-glucopyranoside (BOG) and 3 mM β-Mercaptoethanol (BME). One tablet of Roche Complete, EDTA-free protease inhibitor cocktail (Cat#1873580) and 85 units Benzonase (Novagen Cat#70746-3)) were added per 1 L of original culture. Pellets were resuspended in approximately 50 ml per 1 L of original culture and were then sonicated on ice with two 30-45 sec bursts (100% duty cycle). Debris was removed by centrifugation and the supernatant was passed through a 0.8 μm syringe filter before being loaded onto a 5 ml Ni^2+ HiTrap column (Pharmacia). The column was washed with 6 column volumes of 50 mM Na Phosphate pH 8.0, 500 mM NaCl, 10% glycerol, 3 mM BME. The protein was eluted using a linear gradient of the same buffer containing 500 mM Imidazole. The eluant (24 ml) was cleaved overnight at 4° C. in a buffer containing 50 mM Na Phosphate pH 8.0, 500 mM NaCl, 10% glycerol, 3 mM BME and 10,000 units of TEV (Invitrogen Cat#10127-017). The protein was passed over a second nickel affinity column as described above; the flow-through was collected. The cleaved protein fractions were combined and concentrated using spin concentrators. Further purification was done by gel filtration chromatography on a S75 sizing column in 50 mM Na Phosphate (pH 8.0), 250 mM NaCl, 1 mM EDTA, 0.1 mM AMP-PNP or ATP buffer, and 5 mM DTT. The cleanest fractions were combined and concentrated to approximately 8-11 mg/ml, and were either flash frozen in liquid nitrogen in 120 μl aliquots and stored at −80° C., or stored at 4° C.
For O=S(=O)(Nc1ncc[nH]1)c1ccc(Nc2nccc(-c3ccc(S(=O)(=O)N4CCCCC4)s3)n2)cc1, the IC50 was under 0.1 µM. Compound CC(O)c1cccc(Nc2nccc(-c3ccc(CNC(=O)c4ccccc4)s3)n2)c1 (stereo not shown) has an IC50 of 0.1 to 0.5 µM. In the case of NC(=O)c1cccc(Nc2nccc(-c3ccc(Br)s3)n2)c1, the IC50 is reported as 0.1 to 0.5 µM. CC(O)c1cccc(Nc2nccc(-c3cc(C(=O)NCc4ccccc4)cs3)n2)c1 (stereo not shown) was tested, and the IC50 was under 0.1 µM. Cc1noc(C)c1-c1ccc(-c2ccnc(Nc3cccc(C(C)O)c3)n2)s1 (stereo not shown) was tested, and the IC50 was 0.1 to 0.5 µM. CCN(CCC#N)C(=O)c1ccc(-c2ccnc(Nc3ccncc3)n2)s1 was tested, and the IC50 was over 0.5 µM.

What follows are compounds tested on HCT116 cells (assay: 96-well XTT cell survival assay (AurA XTT)). Conditions: Homo sapiens, HCT-116, 72 hours.
Type: cell-based
Description: HCT116 cells were maintained in McCoy's 5a Medium supplemented with 10% fetal bovine serum (FBS) 2 mM L-Glutamine and 100 units penicillin/100 μg streptomycin, at 37° C. in 5% CO2
Compounds were tested in the following assays in duplicate.
96-well XTT assay: Cells were grown in growth media containing various concentrations of compounds (duplicates) on a 96-well flat bottom plate for 72 hours at 37° C. in 5% CO2. The starting cell number was 5000 cells per well and volume was 120 μl. At the end of the 72-hour incubation, 40 μl of XTT labeling mixture (50:1 solution of sodium 3′-[1-(phenylaminocarbonyl)-3,4-tetrazolium]-bis(4-methoxy-6-nitro) benzene sulfonic acid hydrate and Electron-coupling reagent: PMS (N-methyl dibenzopyrazine methyl sulfate) were added to each well of the plate. After an additional 2-6 hours […] with a spectrophotometer.
For CCN(CCC#N)C(=O)c1ccc(-c2ccnc(Nc3ccncc3)n2)s1, the IC50 was 1 to 5 µM.
